From BindingDB's records for patent US11161844 (PFIZER INC., 2021)

Key:
[1] = biological target: Leucine-rich repeat serine/threonine-protein kinase 2 (Homo sapiens, UniProt Q5S007); assay: LRRK2 Assay
Procedure: (§1) LRRK2 kinase activity was measured using Lantha Screen technology from Invitrogen. GST-tagged truncated LRRK2 from Invitrogen (Cat #PV4874) was incubated with a fluorescein-labeled peptide substrate based upon ezrin/radixin/moesin (ERM), also known as LRRKtide (Invitrogen cat #PR8976A), in the presence of a dose response of compound. Upon completion, the assay was stopped and detected with a terbium labeled anti-phospho-ERM antibody (Invitrogen, cat #PR8975A). The assay was carried out under the following protocol: The compound dose response was prepared by diluting compound to a top concentration of 0.3 mM in 100% DMSO and serial diluted by half-log in DMSO to give an 11 point curve, 100× final assay concentration. Using Echo acoustic dispensing, 60 nL of compound was transferred to a low volume Corning 384-well assay plate. 3 μL of a working solution of substrate (200 nM LRRKtide, 2 mM ATP) prepared in assay buffer (50 mM HEPES, pH 7.5, 3 mM MgCl2, with 2 mM DTT and 0.01% Brij35 added fresh) was added to the 60 nL compound assay plate. The kinase reaction was started with 3 μL of a working solution of LRRK2 enzyme at a concentration of 4 μg/mL. The final reaction concentrations were 100 nM LRRKtide, 1 mM ATP, 2 μg/mL LRRK2 enzyme and a compound dose response with a top dose of 3 μM. The reaction was allowed to progress at room temperature for 30 minutes and then stopped with the addition of 6 μL of detection buffer (20 mM Tris pH 7.6, 0.01% NP-40, 6 mM EDTA with 2 nM terbium labeled anti-phospho-ERM). After an incubation of 1 hour at room temperature, the plate was read on an Envision with an excitation wavelength of 340 nm and a reading emission at both 520 nm and 495 nm. The ratio of the 520 nm and 495 nm emission was used to analyze the data. Inhibition of mutant G2019S LRRK2 (Invitrogen cat #PV4881) was measured in the exact same method. All final concentrations of substrate ATP and enzyme were the same.

[2] = biological target: Leucine-rich repeat serine/threonine-protein kinase 2 [G2019S] (Homo sapiens, UniProt Q5S007, G2019S); assay: LRRK2 Assay
Leucine-rich repeat serine/threonine-protein kinase 2 [G2019S], sequence (Q5S007 whole entry G2019S): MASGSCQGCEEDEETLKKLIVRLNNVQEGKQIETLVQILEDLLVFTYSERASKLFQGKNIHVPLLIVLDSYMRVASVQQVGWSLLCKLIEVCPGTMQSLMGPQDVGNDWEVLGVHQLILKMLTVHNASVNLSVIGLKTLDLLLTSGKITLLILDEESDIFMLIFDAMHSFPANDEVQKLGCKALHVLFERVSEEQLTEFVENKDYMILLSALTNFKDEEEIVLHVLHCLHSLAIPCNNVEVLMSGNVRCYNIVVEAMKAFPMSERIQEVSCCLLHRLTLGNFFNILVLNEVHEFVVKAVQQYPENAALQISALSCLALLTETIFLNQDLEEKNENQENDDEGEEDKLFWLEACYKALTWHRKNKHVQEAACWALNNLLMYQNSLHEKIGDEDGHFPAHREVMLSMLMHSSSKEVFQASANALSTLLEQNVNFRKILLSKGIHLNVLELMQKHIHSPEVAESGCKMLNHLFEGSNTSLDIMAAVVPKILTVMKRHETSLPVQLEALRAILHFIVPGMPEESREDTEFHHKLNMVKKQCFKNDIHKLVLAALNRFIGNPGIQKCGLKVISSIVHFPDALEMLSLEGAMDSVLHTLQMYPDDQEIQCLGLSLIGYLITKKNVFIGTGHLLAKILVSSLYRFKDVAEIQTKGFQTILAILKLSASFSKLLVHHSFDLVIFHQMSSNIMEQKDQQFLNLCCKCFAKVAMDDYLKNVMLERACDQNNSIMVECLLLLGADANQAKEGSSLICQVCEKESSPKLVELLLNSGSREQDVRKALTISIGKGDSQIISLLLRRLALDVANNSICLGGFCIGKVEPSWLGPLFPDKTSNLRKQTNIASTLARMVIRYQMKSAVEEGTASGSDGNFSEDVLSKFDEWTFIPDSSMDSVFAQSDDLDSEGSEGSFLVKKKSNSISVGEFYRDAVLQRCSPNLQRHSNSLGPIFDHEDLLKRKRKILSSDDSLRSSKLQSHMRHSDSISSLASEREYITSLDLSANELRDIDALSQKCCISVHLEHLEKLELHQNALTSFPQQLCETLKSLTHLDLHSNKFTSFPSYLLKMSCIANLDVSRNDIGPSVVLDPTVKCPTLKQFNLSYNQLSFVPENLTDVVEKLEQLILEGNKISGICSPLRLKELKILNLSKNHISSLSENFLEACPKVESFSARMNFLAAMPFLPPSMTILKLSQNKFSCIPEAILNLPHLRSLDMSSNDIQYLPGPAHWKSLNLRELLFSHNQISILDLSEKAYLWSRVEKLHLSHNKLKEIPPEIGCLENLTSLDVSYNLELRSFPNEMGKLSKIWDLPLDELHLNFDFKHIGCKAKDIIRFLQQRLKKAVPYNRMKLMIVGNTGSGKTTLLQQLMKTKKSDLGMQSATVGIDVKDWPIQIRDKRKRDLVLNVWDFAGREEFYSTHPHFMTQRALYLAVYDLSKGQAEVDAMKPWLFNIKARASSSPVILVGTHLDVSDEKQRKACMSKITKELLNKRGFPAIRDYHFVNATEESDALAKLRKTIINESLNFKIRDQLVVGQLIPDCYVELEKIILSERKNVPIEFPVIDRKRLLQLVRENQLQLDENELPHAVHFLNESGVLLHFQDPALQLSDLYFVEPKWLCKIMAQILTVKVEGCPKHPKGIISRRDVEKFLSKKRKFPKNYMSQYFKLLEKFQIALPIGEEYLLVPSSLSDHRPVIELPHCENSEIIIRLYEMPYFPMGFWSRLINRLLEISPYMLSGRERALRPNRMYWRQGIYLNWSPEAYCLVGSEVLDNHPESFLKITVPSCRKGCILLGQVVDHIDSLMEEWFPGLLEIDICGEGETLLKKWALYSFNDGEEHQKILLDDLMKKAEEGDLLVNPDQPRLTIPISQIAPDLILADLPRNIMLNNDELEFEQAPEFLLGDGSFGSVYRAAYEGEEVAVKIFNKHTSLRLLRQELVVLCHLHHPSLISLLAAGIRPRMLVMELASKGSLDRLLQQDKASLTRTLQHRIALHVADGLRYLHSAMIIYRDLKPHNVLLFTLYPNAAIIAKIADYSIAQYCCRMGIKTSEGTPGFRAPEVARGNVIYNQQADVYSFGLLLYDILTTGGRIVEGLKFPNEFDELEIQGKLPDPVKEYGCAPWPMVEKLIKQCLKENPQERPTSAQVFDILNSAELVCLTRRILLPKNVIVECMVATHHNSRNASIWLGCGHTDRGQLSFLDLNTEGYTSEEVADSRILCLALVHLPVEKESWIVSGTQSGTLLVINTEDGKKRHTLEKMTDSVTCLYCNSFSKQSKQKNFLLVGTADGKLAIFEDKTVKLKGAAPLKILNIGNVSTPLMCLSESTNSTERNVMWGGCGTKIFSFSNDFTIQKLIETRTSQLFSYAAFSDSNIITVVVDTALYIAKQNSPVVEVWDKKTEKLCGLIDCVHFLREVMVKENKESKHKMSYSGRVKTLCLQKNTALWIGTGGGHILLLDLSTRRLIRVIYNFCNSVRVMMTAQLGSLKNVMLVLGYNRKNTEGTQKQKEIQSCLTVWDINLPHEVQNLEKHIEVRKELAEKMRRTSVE
Procedure: as §1

Leucine-rich repeat serine/threonine-protein kinase 2, sequence (Q5S007 whole entry, the tested form may be a part): as the sequence (Q5S007 whole entry G2019S) above, with S2019G counted along it

| Structure (SMILES) | IC50 [1] [nM] | IC50 [2] [nM] |
| --- | --- | --- |
| C[C@@H]1C[C@H](n2c(C3CCC(F)C3)nc3cnc4ccc(F)cc4c32)CCO1 (single isomer, unassigned) [US11161844, Example 37] | 5.68 | – |
| C[C@@H]1CC(n2c(C3CC(C)(F)C3)nc3cnc4ccc(F)cc4c32)CCO1 (stereo partly drawn) [US11161844, Example 31] | 22 | 15.8 |
